Data from patent US4220755A, “Fortimicin B derivatives and process for production thereof” (Abbott Laboratories, priority 1976, dated 1980).
In brackets after ≈: the same amount, converted by molar mass.

Experiments:
[1] = Stability in alkaline aqueous conditions; assay type: physicochemical; conditions: for Stability in aqueous solution: pH 10, room temperature, within one hour
Description: The stability of 4-N-acylfortimicin B derivatives in aqueous alkaline conditions is poor. […] Therefore, purification of these compounds under basic conditions (for example, column chromatography with Amberlite CG-50, eluting with aqueous ammonia) is not practical.
In contrast with the instability of 4-N-acylfortimicin B derivatives, 4-N-alkylfortimicin B derivatives are so stable that no decomposition occurs even in aqueous barium hydroxide solution at reflux temperature for 18 hours. Therefore, in the case of 4-N-alkylfortimicin B, any substituents can be introduced at 4-N-position of fortimicin B, even though such substituents can not be introduced as the acyl type to such position due to the aforementioned instability.

[2] = system: Eschericia coli KY4271 ATCC26; assay: MIC, agar dilution method, pH 8.0; assay type: cell-based; conditions: Escherichia coli, ATCC26; pH 8.0; E. coli KY4271; read-out: Minimum inhibition concentration (MIC), EC
Description: (§1) Measurement was carried out according to the agar dilution method, using a medium of pH 8.0, or the Japanese Antibiotic Medicament Standard, using a medium of pH 7.2 Units are in mcg/ml.
E.C.: Eschericia coli KY4271 ATCC26

[3] = system: Salmonella typhosa KY4278 ATCC9992; assay: MIC, agar dilution method, pH 8.0; assay type: cell-based; conditions: Salmonella enterica, pH 8, read-out: Minimum inhibition concentration (MIC), ST
Description: as §1
S.T.: Salmonella typhosa KY4278 ATCC9992

[4] = system: Proteus vulgaris KY4277 ATCC6897; assay: MIC, agar dilution method, pH 8.0; assay type: cell-based; conditions: ATCC6897; pH 8.0; Proteus vulgaris KY4277; read-out: Minimum inhibition concentration (MIC), PV
Description: as §1

[5] = system: Shigella sonnei KY4281 ATCC9290; assay: MIC, agar dilution method, pH 8.0; assay type: cell-based; conditions: ATCC9290; pH 8.0; Shigella sonnei KY4281; read-out: Minimum inhibition concentration (MIC), SS
Description: as §1

Bacillus subtilis KY4273 = assay: MIC, agar dilution method, pH 8.0; assay type: cell-based; conditions: pH 8.0; Bacillus subtilis KY4273; read-out: Minimum inhibition concentration (MIC), BS
Description: as §1
B.S.: Bacillus subtilis KY4273

[6] = system: Staphylococcus aureus KY4279 ATCC6538P; assay: MIC, agar dilution method, pH 8.0; assay type: cell-based; conditions: pH 8.0, Staphylococcus aureus KY4279, read-out: Minimum inhibition concentration (MIC), SA
Description: as §1
S.A.: Staphylococcus aureus KY4279 ATCC6538P

[7] = system: Klebsiella pneumoniae KY4275 ATCC10031; assay: MIC, agar dilution method, pH 8.0; assay type: cell-based; conditions: ATCC10031; pH 8.0; Klebsiella pneumoniae KY4275; read-out: Minimum inhibition concentration (MIC), KP
Description: as §1
K.P.: Klebsiella pneumoniae KY4275 ATCC10031.

| Stability in alkali condition (MIC medium) ([1]; pH 8.0) | Compound | Stability in aqueous solution [1] | MIC [2] [µg/mL] | MIC [3] [µg/mL] | MIC [4] [µg/mL] | MIC [5] [µg/mL] | MIC (Bacillus subtilis KY4273) [µg/mL] | MIC [6] [µg/mL] | MIC [7] [µg/mL] |
| --- | --- | --- | --- | --- | --- | --- | --- | --- | --- |
| unstable | CO[C@H]1[C@@H](O)[C@H](N)[C@@H](O[C@H]2O[C@H]([C@H](C)N)CC[C@H]2N)[C@H](O)[C@@H]1N(C)C(=O)CCCCN [Compound 11, 4-N-(δ-amino-n-valeryl)fortimicin B] | almost completely decomposed |  |  |  |  |  |  |  |
|  | CO[C@H]1[C@@H](O)[C@H](N)[C@@H](O[C@H]2O[C@H]([C@H](C)N)CC[C@H]2N)[C@H](O)[C@@H]1N(C)C(=O)[C@@H](O)CCN [Compound 14, 4-N-[L-(-)-γ-amino-α-hydroxybutyryl]fortimicin B] | almost completely decomposed | 0.63 (≈ 1.4 µM) | 2.5 (≈ 5.56 µM) | 10 (≈ 22.2 µM) | 20 (≈ 44.5 µM) | 5 (≈ 11.1 µM) | 0.63 (≈ 1.4 µM) | 5 (≈ 11.1 µM) |
